Read-outs that look alike come from different tables or passages of the source.
What was measured:
Assay in all cases: KiNativ, MOLM13 live cells
Type in all cases: cell-based
CaMK1a = CaMK1a (Homo sapiens, UniProt Q14012); details: MOLM-13; 100 nM, 2 hours; Lys1; read-out: Inhibition vs DMSO
Protocol: (§1) Samples were analyzed by KiNativ in situ kinase profiling by ActivX Biosciences.

ARAF = ARAF (Homo sapiens, UniProt P10398); details: MOLM-13; 100 nM, 2 hours; Lys2; read-out: Inhibition vs DMSO
Chain of ARAF (P10398 whole entry): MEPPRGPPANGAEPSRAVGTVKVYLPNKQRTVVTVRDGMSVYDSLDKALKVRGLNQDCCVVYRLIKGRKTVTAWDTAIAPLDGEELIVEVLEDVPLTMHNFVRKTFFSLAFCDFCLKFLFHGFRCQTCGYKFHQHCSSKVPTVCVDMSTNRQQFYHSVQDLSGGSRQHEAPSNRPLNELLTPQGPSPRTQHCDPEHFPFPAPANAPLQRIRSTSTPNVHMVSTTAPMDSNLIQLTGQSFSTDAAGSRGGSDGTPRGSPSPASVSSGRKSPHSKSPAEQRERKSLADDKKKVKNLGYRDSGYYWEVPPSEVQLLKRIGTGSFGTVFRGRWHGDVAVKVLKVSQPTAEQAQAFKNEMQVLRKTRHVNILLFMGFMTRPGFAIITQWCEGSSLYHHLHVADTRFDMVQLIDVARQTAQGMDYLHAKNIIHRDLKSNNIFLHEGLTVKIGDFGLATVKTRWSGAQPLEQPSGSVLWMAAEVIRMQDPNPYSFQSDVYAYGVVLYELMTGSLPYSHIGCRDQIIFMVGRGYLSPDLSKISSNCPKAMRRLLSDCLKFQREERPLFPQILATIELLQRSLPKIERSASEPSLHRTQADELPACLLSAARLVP
Protocol: as §1

NDR2 = NDR2 (Homo sapiens, UniProt Q9Y2H1); details: MOLM-13; 100 nM, 2 hours; Lys1; read-out: Inhibition vs DMSO
Chain of NDR2 (Q9Y2H1 whole entry): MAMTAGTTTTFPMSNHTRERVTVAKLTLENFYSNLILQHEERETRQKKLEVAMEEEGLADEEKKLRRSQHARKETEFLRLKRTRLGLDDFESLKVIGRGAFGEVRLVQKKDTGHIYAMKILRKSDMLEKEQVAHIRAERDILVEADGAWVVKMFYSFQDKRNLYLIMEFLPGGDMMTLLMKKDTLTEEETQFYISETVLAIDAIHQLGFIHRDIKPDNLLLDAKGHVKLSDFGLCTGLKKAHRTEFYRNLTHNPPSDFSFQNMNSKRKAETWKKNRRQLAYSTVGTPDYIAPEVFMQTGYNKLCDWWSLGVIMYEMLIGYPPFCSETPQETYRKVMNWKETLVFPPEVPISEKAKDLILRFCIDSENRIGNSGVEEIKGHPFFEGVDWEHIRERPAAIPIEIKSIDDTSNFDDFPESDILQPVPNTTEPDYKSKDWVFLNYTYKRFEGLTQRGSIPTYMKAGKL
Protocol: as §1

JAK1 domain1 = target: T1, JAK1 domain1 (Homo sapiens, UniProt P23458); details: 100 nM, 2 hours; Activation Loop
T1 construct: JAK1 domain1
T1 sequence (P23458 whole entry, the tested form may be a part): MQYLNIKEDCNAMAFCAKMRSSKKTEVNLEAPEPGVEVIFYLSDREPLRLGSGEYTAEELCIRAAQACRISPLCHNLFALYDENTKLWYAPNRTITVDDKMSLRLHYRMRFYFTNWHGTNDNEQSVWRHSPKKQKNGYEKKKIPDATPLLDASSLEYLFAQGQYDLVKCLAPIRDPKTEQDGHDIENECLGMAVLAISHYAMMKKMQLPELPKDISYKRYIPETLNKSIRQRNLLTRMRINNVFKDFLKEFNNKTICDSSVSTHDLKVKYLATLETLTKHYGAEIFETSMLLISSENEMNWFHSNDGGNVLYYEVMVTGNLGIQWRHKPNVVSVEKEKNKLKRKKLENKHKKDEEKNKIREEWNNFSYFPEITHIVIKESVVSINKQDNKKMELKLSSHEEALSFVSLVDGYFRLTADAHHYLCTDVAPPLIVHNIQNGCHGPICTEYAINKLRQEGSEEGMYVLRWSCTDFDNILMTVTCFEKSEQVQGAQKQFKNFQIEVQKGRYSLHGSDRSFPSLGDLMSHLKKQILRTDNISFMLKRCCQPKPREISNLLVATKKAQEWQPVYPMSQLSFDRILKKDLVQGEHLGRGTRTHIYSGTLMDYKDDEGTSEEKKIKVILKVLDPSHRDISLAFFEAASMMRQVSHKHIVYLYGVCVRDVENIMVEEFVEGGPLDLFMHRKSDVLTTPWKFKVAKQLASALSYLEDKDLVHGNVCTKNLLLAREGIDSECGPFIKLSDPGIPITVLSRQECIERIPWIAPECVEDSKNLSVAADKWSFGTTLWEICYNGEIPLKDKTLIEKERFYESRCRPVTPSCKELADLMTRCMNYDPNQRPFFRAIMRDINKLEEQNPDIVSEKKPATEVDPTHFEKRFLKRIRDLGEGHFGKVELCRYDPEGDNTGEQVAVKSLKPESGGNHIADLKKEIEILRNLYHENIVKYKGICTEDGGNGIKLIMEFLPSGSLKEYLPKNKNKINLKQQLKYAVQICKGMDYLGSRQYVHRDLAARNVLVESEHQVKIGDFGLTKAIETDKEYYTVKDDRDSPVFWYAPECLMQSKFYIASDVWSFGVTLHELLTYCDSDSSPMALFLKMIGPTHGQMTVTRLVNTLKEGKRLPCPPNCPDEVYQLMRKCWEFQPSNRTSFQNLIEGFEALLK
Protocol: as §1

JAK1 domain2 = target: T2, JAK1 domain2 (Homo sapiens, UniProt P23458); details: 100 nM, 2 hours
T2 construct: JAK1 domain2
T2 sequence (P23458 whole entry, the tested form may be a part): as above
Protocol: as §1

MLKL = target: T3, MLKL (Homo sapiens, UniProt Q8NB16); details: MOLM-13, 2 h, 100 nM
T3 sequence (Q8NB16 1-471): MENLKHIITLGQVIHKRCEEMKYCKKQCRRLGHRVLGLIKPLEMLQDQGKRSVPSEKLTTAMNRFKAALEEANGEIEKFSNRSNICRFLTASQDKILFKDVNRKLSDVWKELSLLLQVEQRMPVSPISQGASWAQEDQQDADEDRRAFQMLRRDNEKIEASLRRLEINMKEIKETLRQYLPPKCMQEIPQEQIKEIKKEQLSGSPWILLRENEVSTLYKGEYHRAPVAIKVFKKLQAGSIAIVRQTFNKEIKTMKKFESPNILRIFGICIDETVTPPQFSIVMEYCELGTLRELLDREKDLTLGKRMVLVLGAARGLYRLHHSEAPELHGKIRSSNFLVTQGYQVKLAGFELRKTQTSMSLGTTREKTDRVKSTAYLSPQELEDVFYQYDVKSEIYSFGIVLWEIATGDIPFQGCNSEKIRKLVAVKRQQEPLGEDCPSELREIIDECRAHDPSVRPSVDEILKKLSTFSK
Protocol: as §1

MAP3K2 = MAP3K2 (Homo sapiens, UniProt Q9Y2U5); details: MOLM-13; 100 nM, 2 hours; Lys1; read-out: Inhibition vs DMSO
Chain of MAP3K2 (Q9Y2U5 whole entry): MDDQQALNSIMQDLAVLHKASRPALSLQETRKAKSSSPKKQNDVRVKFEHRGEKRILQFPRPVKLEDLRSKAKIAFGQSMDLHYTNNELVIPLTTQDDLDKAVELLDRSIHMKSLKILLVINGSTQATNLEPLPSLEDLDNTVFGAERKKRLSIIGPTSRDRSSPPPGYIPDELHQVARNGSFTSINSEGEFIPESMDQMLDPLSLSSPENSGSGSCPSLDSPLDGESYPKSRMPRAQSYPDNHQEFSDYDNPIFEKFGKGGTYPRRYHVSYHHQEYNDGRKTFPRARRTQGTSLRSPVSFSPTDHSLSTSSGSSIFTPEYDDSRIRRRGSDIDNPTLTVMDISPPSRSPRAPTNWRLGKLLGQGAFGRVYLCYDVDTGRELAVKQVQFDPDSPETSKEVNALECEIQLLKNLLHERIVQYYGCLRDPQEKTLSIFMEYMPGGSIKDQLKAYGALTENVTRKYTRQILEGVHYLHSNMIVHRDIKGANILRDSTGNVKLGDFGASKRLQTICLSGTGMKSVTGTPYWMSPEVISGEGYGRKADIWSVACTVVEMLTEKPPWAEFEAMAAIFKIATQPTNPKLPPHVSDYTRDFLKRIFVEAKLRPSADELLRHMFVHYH
Protocol: as §1

MLK4 = MLK4 (Homo sapiens, UniProt Q5TCX8); details: MOLM-13; 100 nM, 2 hours; Lys2; read-out: Inhibition vs DMSO
Protocol: as §1

ZAK = ZAK (Homo sapiens, UniProt Q9NYL2); details: MOLM-13; 100 nM, 2 hours; Lys1; read-out: Inhibition vs DMSO
Chain of ZAK (Q9NYL2 whole entry): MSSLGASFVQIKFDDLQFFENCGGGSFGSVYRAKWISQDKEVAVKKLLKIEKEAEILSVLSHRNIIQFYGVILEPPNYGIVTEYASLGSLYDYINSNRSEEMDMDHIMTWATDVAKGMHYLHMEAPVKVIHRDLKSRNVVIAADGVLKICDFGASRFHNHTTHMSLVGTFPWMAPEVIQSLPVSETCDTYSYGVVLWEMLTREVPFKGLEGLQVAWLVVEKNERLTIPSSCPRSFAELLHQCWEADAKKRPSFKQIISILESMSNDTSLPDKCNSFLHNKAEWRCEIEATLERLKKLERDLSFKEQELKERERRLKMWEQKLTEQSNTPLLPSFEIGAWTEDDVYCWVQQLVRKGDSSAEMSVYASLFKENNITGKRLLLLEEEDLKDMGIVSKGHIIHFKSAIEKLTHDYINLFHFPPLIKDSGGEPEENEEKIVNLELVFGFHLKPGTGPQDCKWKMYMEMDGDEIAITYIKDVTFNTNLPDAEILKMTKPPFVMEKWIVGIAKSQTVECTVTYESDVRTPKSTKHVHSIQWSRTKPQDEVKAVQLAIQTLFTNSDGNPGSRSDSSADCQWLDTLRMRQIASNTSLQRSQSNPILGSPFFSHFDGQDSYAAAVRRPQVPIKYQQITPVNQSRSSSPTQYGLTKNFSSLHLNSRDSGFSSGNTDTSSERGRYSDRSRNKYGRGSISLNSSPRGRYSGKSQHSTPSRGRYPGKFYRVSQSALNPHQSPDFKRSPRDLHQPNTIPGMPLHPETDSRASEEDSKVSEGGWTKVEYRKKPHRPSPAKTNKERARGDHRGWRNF
Protocol: as §1

CaMK1d = CaMK1d (Homo sapiens, UniProt Q8IU85); details: MOLM-13; 100 nM, 2 hours; Lys1; read-out: Inhibition vs DMSO
Chain of CaMK1d (Q8IU85 whole entry): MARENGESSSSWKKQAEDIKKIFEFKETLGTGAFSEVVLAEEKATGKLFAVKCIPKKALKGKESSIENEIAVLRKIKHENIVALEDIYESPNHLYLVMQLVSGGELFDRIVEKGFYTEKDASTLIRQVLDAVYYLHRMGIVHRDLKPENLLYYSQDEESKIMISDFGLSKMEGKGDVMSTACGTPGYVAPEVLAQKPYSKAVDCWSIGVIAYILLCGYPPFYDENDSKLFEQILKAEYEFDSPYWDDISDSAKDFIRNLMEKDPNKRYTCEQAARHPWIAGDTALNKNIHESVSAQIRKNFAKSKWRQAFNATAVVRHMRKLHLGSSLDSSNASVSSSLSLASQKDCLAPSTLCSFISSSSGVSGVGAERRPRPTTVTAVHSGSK
Protocol: as §1

PFTAIRE2 = PFTAIRE2 (Homo sapiens, UniProt Q96Q40); details: MOLM-13; 100 nM, 2 hours; Lys2; read-out: Inhibition vs DMSO
Chain of PFTAIRE2 (Q96Q40 whole entry): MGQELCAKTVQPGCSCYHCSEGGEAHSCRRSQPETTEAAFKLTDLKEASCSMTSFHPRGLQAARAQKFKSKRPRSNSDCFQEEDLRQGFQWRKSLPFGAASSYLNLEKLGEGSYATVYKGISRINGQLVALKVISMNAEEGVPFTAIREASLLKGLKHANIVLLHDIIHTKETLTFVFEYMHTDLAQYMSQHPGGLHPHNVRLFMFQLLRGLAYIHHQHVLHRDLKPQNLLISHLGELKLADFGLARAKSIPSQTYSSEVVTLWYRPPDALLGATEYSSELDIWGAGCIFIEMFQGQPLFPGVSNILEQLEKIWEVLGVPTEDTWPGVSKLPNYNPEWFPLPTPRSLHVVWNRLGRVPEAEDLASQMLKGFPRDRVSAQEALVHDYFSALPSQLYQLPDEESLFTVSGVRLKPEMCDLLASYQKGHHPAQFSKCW
Protocol: as §1

LATS2 = target: T4, LATS2 (Homo sapiens, UniProt Q9NRM7); details: 100 nM, 2 hours
T4 sequence (Q9NRM7 1-1088): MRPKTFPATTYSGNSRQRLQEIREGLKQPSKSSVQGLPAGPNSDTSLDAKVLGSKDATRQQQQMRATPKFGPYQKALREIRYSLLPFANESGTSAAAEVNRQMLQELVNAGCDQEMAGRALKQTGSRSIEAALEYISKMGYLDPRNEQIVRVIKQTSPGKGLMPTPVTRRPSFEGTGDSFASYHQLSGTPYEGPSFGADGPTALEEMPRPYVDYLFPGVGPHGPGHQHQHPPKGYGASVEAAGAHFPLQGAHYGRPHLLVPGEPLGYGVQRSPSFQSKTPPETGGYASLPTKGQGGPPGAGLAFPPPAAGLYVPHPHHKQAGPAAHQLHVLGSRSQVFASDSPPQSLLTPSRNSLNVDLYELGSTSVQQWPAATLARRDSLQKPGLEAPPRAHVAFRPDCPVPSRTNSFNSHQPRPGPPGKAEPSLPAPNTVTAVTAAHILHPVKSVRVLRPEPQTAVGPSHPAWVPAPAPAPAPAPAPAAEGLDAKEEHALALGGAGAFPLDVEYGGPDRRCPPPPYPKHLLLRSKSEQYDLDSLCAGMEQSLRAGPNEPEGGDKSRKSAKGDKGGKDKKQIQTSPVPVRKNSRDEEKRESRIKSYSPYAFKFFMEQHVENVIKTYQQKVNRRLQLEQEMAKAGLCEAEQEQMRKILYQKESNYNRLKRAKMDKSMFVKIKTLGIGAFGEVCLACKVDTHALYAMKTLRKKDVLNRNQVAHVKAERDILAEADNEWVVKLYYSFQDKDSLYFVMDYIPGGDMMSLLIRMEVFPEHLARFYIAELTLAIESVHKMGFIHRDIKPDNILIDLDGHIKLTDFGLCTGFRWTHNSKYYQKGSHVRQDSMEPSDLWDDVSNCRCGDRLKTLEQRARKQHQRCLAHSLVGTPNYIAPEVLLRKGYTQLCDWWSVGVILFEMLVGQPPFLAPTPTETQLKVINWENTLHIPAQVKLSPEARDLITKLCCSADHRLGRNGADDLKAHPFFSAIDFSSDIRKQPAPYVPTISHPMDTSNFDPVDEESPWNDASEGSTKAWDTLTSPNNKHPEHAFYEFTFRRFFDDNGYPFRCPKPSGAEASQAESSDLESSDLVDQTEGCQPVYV
Protocol: as §1

ILK = target: T5, ILK (Homo sapiens, UniProt Q13418); details: MOLM-13, 2 h, 100 nM
T5 sequence (Q13418 1-452): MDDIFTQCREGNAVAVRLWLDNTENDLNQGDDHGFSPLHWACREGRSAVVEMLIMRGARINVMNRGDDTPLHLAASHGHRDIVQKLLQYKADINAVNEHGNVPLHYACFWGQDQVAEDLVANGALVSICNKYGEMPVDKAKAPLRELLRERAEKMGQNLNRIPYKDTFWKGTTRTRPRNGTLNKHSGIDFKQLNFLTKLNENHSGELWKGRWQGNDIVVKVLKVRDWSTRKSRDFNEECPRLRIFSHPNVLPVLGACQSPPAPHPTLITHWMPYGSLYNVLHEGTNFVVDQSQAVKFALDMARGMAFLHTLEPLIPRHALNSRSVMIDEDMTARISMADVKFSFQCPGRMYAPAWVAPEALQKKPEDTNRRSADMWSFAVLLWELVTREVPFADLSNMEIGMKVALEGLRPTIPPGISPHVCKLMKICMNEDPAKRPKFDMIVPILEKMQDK
Protocol: as §1

[1] = Lys1, read-out: Inhibition vs DMSO
[2] = Protein Kinase Domain, read-out: Inhibition vs DMSO

Chain of CaMK1a (Q14012 whole entry): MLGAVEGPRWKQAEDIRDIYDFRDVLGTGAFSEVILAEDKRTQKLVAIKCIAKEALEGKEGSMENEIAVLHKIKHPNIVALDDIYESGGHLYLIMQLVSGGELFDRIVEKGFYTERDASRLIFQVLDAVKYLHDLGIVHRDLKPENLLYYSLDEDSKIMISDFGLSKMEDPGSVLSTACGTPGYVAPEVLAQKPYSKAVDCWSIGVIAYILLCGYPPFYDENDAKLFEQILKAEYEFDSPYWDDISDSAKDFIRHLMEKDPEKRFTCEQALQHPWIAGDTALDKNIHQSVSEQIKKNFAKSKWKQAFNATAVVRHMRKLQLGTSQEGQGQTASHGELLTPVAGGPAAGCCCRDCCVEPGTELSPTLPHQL

Structure (SMILES): CN1CCN(Cc2ccc(Nc3ncc(Cl)c(Nc4ccccc4S(=O)(=O)N(C)C)n3)cc2)CC1 [TP-0903]
- inhibition at 0.1 µM (CaMK1a): 1.3%
- inhibition at 0.1 µM (ARAF): -2.9%
- inhibition at 0.1 µM (NDR2): -0.6%
- Inhibition vs DMSO (JAK1 domain1): 82.7%
- Inhibition vs DMSO (JAK1 domain2; Activation Loop): -23.7%
- Inhibition vs DMSO (JAK1 domain2; Lys1): -597.8%
- inhibition at 0.1 µM (MLKL; Activation Loop, read-out: Inhibition vs DMSO): -29%
- inhibition at 0.1 µM (MLKL; [1]): -26.9%
- inhibition at 0.1 µM (MLKL; [2]): -65.7%
- inhibition at 0.1 µM (MAP3K2): -7.5%
- inhibition at 0.1 µM (MLK4): -13.5%
- inhibition at 0.1 µM (ZAK): 7.6%
- inhibition at 0.1 µM (CaMK1d): 23.2%
- inhibition at 0.1 µM (PFTAIRE2): 16.4%
- Inhibition vs DMSO (LATS2; Lys1): 7.9%
- Inhibition vs DMSO (LATS2; Lys2): -14.6%
- inhibition at 0.1 µM (ILK; [1]): 6.4%
- inhibition at 0.1 µM (ILK; [2]): -1.3%
